One assay concerns the target EGFR L858R (Homo sapiens (Human), UniProt P00533, L858R). Put plainly: Biochemical EGFR inhibition assay, EGFR L858R. The following applies: Caliper mobility shift; 1.0 mM ATP or ATP Km; read-out: Enz EGFR_L858R IC50.
In assay [1] the target is pEGFR (Tyr1068) in PC-9 cells (Ex19Del) (Homo sapiens (Human), UniProt P00533, DEL746-750). The experiment in a line: PC-9 pEGFR AlphaLISA assay. Type of assay: cell-based. The following applies: 4 hours incubation, p-EGFR (Tyr1068) AlphaLISA, read-out: Ext pEGFR_PC-9 Ex19Del IC50. Summed up: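 Readout: AlphaLISA SureFire Ultra signal in cell lysates, with acceptor beads for 1.5-2 h and donor beads overnight at room temperature in the dark. Beforehand, unstimulated cells in 10% FBS medium received compounds (10 points, 4-fold steps) for 4 h at 37° C. IC50 came from percent inhibition curves.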
Chain of pEGFR (Tyr1068) in PC-9 cells (Ex19Del) (P00533 other isoform, or with tags, fused parts or gaps del 746-750): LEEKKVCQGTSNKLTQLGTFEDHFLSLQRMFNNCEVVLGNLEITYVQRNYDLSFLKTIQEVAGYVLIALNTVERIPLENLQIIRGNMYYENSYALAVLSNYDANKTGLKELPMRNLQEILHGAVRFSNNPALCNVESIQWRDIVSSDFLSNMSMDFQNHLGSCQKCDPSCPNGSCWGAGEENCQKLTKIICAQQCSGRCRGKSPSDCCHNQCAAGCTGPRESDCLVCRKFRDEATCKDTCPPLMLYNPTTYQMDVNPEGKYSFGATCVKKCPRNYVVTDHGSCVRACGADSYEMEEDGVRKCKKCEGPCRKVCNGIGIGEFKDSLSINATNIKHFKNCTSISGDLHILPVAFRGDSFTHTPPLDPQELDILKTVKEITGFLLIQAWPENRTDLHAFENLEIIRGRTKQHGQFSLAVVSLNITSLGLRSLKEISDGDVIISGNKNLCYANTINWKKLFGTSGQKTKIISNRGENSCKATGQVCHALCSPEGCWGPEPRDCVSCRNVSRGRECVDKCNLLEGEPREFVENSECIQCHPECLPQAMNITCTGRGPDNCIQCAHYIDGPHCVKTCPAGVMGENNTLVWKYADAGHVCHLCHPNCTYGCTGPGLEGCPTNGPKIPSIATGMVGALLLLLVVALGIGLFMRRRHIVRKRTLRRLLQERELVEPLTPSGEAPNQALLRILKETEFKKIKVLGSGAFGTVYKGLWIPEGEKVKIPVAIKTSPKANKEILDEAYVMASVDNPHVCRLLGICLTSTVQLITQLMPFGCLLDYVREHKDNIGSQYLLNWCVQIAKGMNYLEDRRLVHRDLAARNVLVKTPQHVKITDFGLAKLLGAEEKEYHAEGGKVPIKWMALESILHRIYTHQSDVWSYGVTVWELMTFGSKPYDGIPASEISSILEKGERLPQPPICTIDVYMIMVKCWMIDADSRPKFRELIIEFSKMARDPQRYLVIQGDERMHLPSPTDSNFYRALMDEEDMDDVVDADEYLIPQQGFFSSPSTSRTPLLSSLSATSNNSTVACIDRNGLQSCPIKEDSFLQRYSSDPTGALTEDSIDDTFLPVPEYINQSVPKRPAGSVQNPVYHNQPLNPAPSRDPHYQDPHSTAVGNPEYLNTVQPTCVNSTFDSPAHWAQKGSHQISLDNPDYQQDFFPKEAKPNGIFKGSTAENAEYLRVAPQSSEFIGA
(In Alpha technology, singlet oxygen from a donor bead excites a nearby acceptor bead.)

The next assay addresses EGFR (d746-750) (Homo sapiens (Human), UniProt P00533, DEL746-750). Put plainly: Biochemical EGFR inhibition assay, EGFR (d746-750). The following applies: Caliper mobility shift; 1.0 mM ATP or ATP Km; read-out: Enz EGFR_Exon19-del746-750 IC50.

These results are taken from patent publication US20250236608A1, “EGFR INHIBITORS” (Blueprint Medicines Corporation, priority 2022, published 2025).

Chain of EGFR L858R (P00533 25-1210 L858R): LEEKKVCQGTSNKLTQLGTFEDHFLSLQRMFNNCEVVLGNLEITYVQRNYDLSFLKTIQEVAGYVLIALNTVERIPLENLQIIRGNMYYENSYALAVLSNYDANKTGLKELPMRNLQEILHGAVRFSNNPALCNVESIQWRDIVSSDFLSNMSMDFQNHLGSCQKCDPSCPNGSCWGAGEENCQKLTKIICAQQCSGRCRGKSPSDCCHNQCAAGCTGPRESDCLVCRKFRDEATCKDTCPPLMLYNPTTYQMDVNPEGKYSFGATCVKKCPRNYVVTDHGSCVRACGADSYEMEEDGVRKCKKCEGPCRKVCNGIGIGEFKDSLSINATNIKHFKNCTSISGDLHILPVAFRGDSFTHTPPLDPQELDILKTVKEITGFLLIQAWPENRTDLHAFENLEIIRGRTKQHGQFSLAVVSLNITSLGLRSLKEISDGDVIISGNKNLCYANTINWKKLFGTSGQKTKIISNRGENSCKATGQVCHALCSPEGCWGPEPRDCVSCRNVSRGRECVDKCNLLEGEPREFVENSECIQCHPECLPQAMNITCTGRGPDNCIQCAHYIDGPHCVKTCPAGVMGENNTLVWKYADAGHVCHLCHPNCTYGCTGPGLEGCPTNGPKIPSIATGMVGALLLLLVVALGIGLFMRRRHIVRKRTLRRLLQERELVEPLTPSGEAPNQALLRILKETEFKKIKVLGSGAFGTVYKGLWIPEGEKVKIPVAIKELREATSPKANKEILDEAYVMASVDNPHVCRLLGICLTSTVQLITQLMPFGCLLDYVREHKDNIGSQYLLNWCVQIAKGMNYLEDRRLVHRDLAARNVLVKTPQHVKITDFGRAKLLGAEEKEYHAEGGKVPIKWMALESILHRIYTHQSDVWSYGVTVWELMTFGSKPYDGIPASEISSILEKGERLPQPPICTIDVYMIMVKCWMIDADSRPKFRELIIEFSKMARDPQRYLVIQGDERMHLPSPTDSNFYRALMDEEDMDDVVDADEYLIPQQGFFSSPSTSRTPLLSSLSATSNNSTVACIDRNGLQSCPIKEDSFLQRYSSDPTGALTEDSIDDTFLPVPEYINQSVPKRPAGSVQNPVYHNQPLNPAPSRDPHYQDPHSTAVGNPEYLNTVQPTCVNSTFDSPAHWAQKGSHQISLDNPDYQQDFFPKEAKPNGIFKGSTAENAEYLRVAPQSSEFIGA
Chain of EGFR (d746-750) (P00533 other isoform, or with tags, fused parts or gaps del 1-694/del 746-750 limits assumed): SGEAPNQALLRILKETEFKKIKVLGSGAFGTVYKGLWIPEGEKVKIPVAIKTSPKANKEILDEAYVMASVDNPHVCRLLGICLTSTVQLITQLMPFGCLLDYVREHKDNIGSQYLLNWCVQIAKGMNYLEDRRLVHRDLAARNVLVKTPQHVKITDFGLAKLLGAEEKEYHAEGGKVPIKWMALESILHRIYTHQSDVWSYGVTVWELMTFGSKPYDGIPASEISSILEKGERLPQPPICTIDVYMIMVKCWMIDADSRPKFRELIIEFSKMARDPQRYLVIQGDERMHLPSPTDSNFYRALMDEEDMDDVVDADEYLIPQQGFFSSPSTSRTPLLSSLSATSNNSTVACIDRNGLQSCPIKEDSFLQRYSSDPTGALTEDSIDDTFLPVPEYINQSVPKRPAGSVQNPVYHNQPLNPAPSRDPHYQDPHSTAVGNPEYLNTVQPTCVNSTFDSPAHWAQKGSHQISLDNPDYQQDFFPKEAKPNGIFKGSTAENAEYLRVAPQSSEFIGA

With `COc1cc2ncnc(-c3cn(C)nc3-c3ccccc3)c2cc1NC(=O)c1ccnnc1` [Example 328, N-(7-methoxy-4-(1-methyl-3-phenyl-1H-pyrazol-4-yl)quinazolin-6-yl)pyridazine-4-carboxamide], the half-maximal inhibitory concentration (IC50) at EGFR L858R was 2.3 nM; in assay [1], 4.5 nM; at EGFR (d746-750) it was 1.1 nM.
The matching figures for `COc1cc2ncnc(-c3cn(C)nc3-c3ccccc3)c2cc1OC(=O)N1C[C@H](C)OC[C@@H]1C` (racemic) [Example 92, cis-rac-7-methoxy-4-(1-methyl-3-phenyl-1H-pyrazol-4-yl)quinazolin-6-yl (2R,5S)-2,5-dimethylmorpholine-4-carboxylate or trans-rac-7-methoxy-4-(1-methyl-3-phenyl-1H-pyrazol-4-yl)quinazolin-6-yl (2S,5S)-2,5-dimethylmorpholine-4-carboxylate]: 9.3 nM, 13.4 nM and 3.4 nM.
The matching figures for `COc1cc2ncnc(-c3cn(C)nc3-c3ccccc3)c2cc1NC(=O)[C@@H]1C[C@H]1C(F)(F)F` [Example 286, (1R,2R)—N-(7-methoxy-4-(1-methyl-3-phenyl-1H-pyrazol-4-yl)quinazolin-6-yl)-2-(trifluoromethyl)cyclopropane-1-carboxamide]: 3.5 nM, 4.3 nM and 1.6 nM.
Take `CN(C)CCOc1cc2ncnc(-c3cn(C)nc3-c3ccccc3)c2nc1NC(=O)C12COCC1C2` (stereo not drawn) [Example 435, N-(7-(2-(dimethylamino)ethoxy)-4-(1-methyl-3-phenyl-1H-pyrazol-4-yl)pyrido[3,2-d]pyrimidin-6-yl)-3-oxabicyclo[3.1.0]hexane-1-carboxamide]: the IC50 worked out at 25.8 nM at EGFR L858R, 9.7 nM in assay [1] and 3.1 nM at EGFR (d746-750).
The matching figures for `COc1cc2ncnc(-c3c[nH]nc3-c3ccc(F)cc3)c2nc1NC(=O)[C@]12COC[C@H]1C2` [Example 467, (1S,5S)—N-{4-[3-(4-fluorophenyl)-1H-pyrazol-4-yl]-7-methoxypyrido[3,2-d]pyrimidin-6-yl}-3-oxabicyclo[3.1.0]hexane-1-carboxamide]: 5.5 nM, 5.3 nM and 1.3 nM.
As to `CCn1cc(C(=O)Nc2cc3c(-c4cn(CC(F)F)nc4-c4ccccc4)ncnc3cc2OC)cn1` [Example 268, N-(4-(1-(2,2-difluoroethyl)-3-phenyl-1H-pyrazol-4-yl)-7-methoxyquinazolin-6-yl)-1-ethyl-1H-pyrazole-4-carboxamide], the concentration for half-maximal inhibition (IC50) on EGFR L858R came to 1.8 nM; in assay [1] it was 0.8 nM; at EGFR (d746-750), 1.1 nM.
The matching figures for `COc1cc2ncnc(-c3cn(C)nc3-c3ccccc3)c2nc1O[C@H](C)c1nnnn1C` [Example 46, (R)-7-methoxy-6-(1-(1-methyl-1H-tetrazol-5-yl)ethoxy)-4-(1-methyl-3-phenyl-1H-pyrazol-4-yl)pyrido[3,2-d]pyrimidine]: 4.4 nM, 11.7 nM and 1.9 nM.
Consider `COc1cc2ncnc(-c3cn(C)nc3-c3ccc(F)cc3)c2nc1NC(=O)C12CC(N(C)C)(C1)C2` [Example 402, 3-(dimethylamino)-N-(4-(3-(4-fluorophenyl)-1-methyl-1H-pyrazol-4-yl)-7-methoxypyrido[3,2-d]pyrimidin-6-yl)bicyclo[1.1.1]pentane-1-carboxamide], for which the half-maximal inhibitory concentration (IC50) was found to be 3.1 nM on EGFR L858R, 3.8 nM in assay [1] and 1.3 nM on EGFR (d746-750).
The matching figures for `COc1cc2ncnc(-c3cn(C)nc3-c3ccccc3)c2cc1NC(=O)C1CCC1` [Example 347, N-(7-methoxy-4-(1-methyl-3-phenyl-1H-pyrazol-4-yl)quinazolin-6-yl)cyclobutanecarboxamide]: 2.4 nM, 0.6 nM and 1.2 nM.
Taken in the same sequence, the figures for `COc1cc2ncnc(-c3cn(C)nc3-c3ccccc3)c2cc1OC(=O)N1C(C)CN(C)C[C@H]1C` (stereo in doubt) [Example 90, 7-methoxy-4-(1-methyl-3-phenyl-1H-pyrazol-4-yl)quinazolin-6-yl (2R,6R)-2,4,6-trimethylpiperazine-1-carboxylate] were 14 nM, 31.6 nM and 8.5 nM.
Taken in the same sequence, the figures for `COc1cc2ncnc(-c3cn(C)nc3-c3ccccc3)c2cc1-c1cccc2c1nc(CO)n2C` [Example 148, (4-(7-methoxy-4-(1-methyl-3-phenyl-1H-pyrazol-4-yl)quinazolin-6-yl)-1-methyl-1H-benzo[d]imidazol-2-yl)methanol] were 7 nM, 8.3 nM and 3 nM.
On to `COc1cc2ncnc(-c3cn(CC(F)F)nc3-c3ccccc3)c2cc1C1(O)CC1` [Example 126, 1-(4-(1-(2,2-difluoroethyl)-3-phenyl-1H-pyrazol-4-yl)-7-methoxyquinazolin-6-yl)cyclopropan-1-ol], for which the values for the IC50 (on EGFR L858R; in assay [1]; at EGFR (d746-750)) were 1.9 nM, 3.2 nM and 0.9 nM, respectively.
Take `Cn1cc(-c2ncnc3cc(C(F)(F)F)c(NC(=O)C45COCC4C5)nc23)c(-c2ccccc2)n1` (stereo not drawn) [Example 483, N-(4-(1-methyl-3-phenyl-1H-pyrazol-4-yl)-7-(trifluoromethyl)pyrido[3,2-d]pyrimidin-6-yl)-3-oxabicyclo[3.1.0]hexane-1-carboxamide]: the IC50 on EGFR L858R amounted to 748 nM; in assay [1] it was 1710 nM; on EGFR (d746-750), 300 nM.
Take `COc1cc2ncnc(-c3cn(C)nc3-c3ccccc3)c2nc1OC(C)c1cscn1` (stereo not drawn) [Example 31, 4-(1-((7-methoxy-4-(1-methyl-3-phenyl-1H-pyrazol-4-yl)pyrido[3,2-d]pyrimidin-6-yl)oxy)ethyl)thiazole]: the IC50 was found to be 1 nM on EGFR L858R, 1.1 nM in assay [1] and 0.8 nM on EGFR (d746-750).
Taken in the same sequence, the figures for `COc1cc2ncnc(-c3cn(CC(F)F)nc3-c3ccc(F)cc3)c2cc1C1(O)CC1` [Example 489] were 6.9 nM, 13.8 nM and 3.9 nM.
As for `COc1cc2ncnc(-c3cn(C)nc3-c3ccccc3)c2nc1NC(=O)c1cnn(C(F)(F)F)c1` [Example 360, N-(7-methoxy-4-(1-methyl-3-phenyl-1H-pyrazol-4-yl)pyrido[3,2-d]pyrimidin-6-yl)-1-(trifluoromethyl)-1H-pyrazole-4-carboxamide], the IC50 on EGFR L858R was 1.8 nM; in assay [1], 2.7 nM; at EGFR (d746-750), 1 nM.
In the case of `CN1CCC(n2cc(-c3ccc4c(-c5c[nH]nc5-c5ccccc5)ncnc4c3)cn2)CC1` [Example 442, 7-(1-(1-methylpiperidin-4-yl)-1H-pyrazol-4-yl)-4-(3-phenyl-1H-pyrazol-4-yl)quinazoline], the values for the IC50 (on EGFR L858R; in assay [1]; on EGFR (d746-750)) were 1.4 nM, 0.4 nM and 1.1 nM, respectively.
Taken in the same sequence, the figures for `COc1cc2ncnc(-c3cn(C4CC4)nc3-c3ccccc3)c2nc1NC(=O)c1cnn(C(F)(F)F)c1` [Example 365, N-(4-(1-cyclopropyl-3-phenyl-1H-pyrazol-4-yl)-7-methoxypyrido[3,2-d]pyrimidin-6-y1)-1-(trifluoromethyl)-1H-pyrazole-4-carboxamide] were 1.8 nM, 2 nM and 0.9 nM.
Taken in the same sequence, the figures for `COc1cc2ncnc(-c3cn(C)nc3-c3ccccc3)c2cc1NC(=O)c1ccc(F)cn1` [Example 324, 5-fluoro-N-(7-methoxy-4-(1-methyl-3-phenyl-1H-pyrazol-4-yl)quinazolin-6-yl)picolinamide] were 3.8 nM, 2.6 nM and 2 nM.
For `C[C@H](O)c1cc2c(-c3cn(CC(F)F)nc3-c3ccccc3)ncnc2cc1O[C@H]1CCOC1` (single isomer, unassigned) [Example 117, (S)-1-(4-(1-(2,2-difluoroethyl)-3-phenyl-1H-pyrazol-4-yl)-7-(((S)-tetrahydrofuran-3-yl)oxy)quinazolin-6-yl)ethan-1-ol or (R)-1-(4-(1-(2,2-difluoroethyl)-3-phenyl-1H-pyrazol-4-yl)-7-(((S)-tetrahydrofuran-3-yl)oxy)quinazolin-6-yl)ethan-1-ol], the IC50 worked out at 1.9 nM at EGFR L858R, 3.4 nM in assay [1] and 0.6 nM on EGFR (d746-750).
For `COc1cc2ncnc(-c3cn(C)nc3-c3ccc(F)cc3)c2nc1NC(=O)[C@]12COC[C@H]1C2` (single isomer, unassigned) [Example 381, (1S,5S)—N-(4-(3-(4-fluorophenyl)-1-methyl-1H-pyrazol-4-yl)-7-methoxypyrido[3,2-d]pyrimidin-6-yl)-3-oxabicyclo[3.1.0]hexane-1-carboxamide or (1R,5R)—N-(4-(3-(4-fluorophenyl)-1-methyl-1H-pyrazol-4-yl)-7-methoxypyrido[3,2-d]pyrimidin-6-yl)-3-oxabicyclo[3.1.0]hexane-1-carboxamide], the IC50 turned out to be 1.9 nM at EGFR L858R, 1.4 nM in assay [1] and 0.7 nM at EGFR (d746-750).
Turning to `CCn1cc(-c2ncnc3cc(OC)c(NC(=O)[C@]45COC[C@H]4C5)cc23)c(-c2ccc(F)cc2)n1` [Example 335, (1S,5S)—N-(4-(1-ethyl-3-(4-fluorophenyl)-1H-pyrazol-4-yl)-7-methoxyquinazolin-6-yl)-3-oxabicyclo[3.1.0]hexane-1-carboxamide], the IC50 at EGFR L858R is 2.9 nM; in assay [1], 3 nM; on EGFR (d746-750), 1.6 nM.

Broadly, the IC50 is the concentration needed to halve the response being measured.
